# Source: ChEMBL document CHEMBL1201862, “PubChem BioAssay data set” (2004)
# Activity calls are given as the source filed them.
# Columns and labels:
# [1] = biological target: Peroxisome proliferator-activated receptor gamma/Nuclear receptor coactivator 2 (Homo sapiens, UniProt P37231); type: functional;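 note: agonist potency for raising coactivator recruitment to the receptor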
# [2] = biological target: Peroxisome proliferator-activated receptor gamma/Nuclear receptor coactivator 1 (Homo sapiens, UniProt P37231); type: functional;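 note: agonist potency as compounds enhance coactivator SRC-1 recruitment to PPARgamma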
# Sequence of Peroxisome proliferator-activated receptor gamma/Nuclear receptor coactivator 1 (P37231 whole entry): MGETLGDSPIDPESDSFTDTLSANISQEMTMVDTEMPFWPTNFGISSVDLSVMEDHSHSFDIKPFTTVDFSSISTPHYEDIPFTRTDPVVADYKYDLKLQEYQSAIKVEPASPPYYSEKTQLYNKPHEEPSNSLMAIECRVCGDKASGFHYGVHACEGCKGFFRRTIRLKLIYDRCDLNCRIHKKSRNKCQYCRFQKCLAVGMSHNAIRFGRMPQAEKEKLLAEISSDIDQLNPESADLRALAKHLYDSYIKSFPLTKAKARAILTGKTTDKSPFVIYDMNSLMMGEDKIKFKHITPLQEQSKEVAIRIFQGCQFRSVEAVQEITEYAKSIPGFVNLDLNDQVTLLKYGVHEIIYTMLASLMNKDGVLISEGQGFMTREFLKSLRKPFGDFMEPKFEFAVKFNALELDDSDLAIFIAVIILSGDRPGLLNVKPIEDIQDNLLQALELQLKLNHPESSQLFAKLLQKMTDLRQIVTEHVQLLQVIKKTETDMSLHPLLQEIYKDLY
# Sequence of Peroxisome proliferator-activated receptor gamma/Nuclear receptor coactivator 1 (Q15788 whole entry, further chain): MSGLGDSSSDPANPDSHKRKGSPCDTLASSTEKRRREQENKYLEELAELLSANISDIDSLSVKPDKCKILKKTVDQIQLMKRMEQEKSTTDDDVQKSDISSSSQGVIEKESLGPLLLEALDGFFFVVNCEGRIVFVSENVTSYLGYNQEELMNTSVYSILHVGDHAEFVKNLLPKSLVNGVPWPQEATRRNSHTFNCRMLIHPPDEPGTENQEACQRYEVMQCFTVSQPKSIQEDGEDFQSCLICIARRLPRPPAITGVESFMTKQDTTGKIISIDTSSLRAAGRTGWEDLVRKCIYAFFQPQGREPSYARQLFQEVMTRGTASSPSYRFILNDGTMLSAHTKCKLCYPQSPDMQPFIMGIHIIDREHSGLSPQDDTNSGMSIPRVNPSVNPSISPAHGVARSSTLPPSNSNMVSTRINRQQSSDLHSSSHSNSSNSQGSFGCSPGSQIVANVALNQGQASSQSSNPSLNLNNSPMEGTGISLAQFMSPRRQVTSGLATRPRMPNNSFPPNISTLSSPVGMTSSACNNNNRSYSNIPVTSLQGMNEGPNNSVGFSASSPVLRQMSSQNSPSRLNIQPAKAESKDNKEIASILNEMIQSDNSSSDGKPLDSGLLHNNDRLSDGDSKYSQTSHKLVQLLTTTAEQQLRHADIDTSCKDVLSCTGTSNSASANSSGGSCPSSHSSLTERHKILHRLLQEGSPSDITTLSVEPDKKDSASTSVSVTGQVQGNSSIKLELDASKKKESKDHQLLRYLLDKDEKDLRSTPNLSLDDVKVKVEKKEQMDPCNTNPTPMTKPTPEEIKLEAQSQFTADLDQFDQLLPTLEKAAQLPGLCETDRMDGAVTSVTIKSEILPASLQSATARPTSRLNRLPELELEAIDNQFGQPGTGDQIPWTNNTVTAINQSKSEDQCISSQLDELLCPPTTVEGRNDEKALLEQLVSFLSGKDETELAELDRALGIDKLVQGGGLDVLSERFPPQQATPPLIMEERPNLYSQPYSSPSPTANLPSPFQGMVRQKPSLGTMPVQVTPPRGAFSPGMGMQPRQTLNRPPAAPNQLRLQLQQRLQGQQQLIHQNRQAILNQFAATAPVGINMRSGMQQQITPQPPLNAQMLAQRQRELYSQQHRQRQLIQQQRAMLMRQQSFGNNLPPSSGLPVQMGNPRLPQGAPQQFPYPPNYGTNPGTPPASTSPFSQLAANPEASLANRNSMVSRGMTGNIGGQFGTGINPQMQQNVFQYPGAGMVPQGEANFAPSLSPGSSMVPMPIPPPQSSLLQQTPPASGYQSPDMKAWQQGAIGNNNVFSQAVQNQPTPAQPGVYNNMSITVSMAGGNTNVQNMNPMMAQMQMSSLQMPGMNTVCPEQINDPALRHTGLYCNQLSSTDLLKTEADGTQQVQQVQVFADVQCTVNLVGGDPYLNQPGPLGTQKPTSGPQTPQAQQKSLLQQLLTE
# [3] = biological target: Peroxisome proliferator-activated receptor gamma/Nuclear receptor coactivator 3 (Homo sapiens, UniProt P37231); type: functional;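 note: agonist potency for raising coactivator recruitment to the receptor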
# [4] = biological target: Eukaryotic translation initiation factor 4H (Homo sapiens, UniProt Q15056); assay: human eIF4H binding inhibitors, primary screen, translation initiation inhibitor project, biochemical, uHTS, fluorescence polarization (AID 2012)
# [5] = biological target: Polyadenylate-binding protein 1 (Homo sapiens, UniProt P11940); assay: PABP poly(A) RNA binding inhibitors, primary screen, biochemical, fluorescence polarization, uHTS (AID 2014)
# Sequence of Polyadenylate-binding protein 1 (P11940 whole entry): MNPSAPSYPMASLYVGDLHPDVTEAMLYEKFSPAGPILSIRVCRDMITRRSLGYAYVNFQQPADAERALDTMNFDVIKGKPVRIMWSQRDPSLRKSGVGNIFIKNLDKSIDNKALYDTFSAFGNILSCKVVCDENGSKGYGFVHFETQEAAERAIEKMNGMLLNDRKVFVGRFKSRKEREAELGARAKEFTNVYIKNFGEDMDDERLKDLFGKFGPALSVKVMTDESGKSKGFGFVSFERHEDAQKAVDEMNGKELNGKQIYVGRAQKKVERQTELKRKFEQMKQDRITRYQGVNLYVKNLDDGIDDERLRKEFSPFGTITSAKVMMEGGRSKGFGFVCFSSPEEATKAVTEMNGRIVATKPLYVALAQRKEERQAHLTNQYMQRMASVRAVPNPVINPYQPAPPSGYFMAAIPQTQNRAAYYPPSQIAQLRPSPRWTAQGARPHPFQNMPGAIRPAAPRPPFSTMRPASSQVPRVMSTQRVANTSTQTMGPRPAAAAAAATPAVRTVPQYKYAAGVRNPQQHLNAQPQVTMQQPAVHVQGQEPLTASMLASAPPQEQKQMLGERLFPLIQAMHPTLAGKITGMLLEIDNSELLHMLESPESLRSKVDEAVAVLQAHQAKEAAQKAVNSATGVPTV
# [6] = biological target: T1, CAAX prenyl protease 2 (Saccharomyces cerevisiae S288c, UniProt Q03530); type: biochemical
# T1 sequence (Q03530 whole entry): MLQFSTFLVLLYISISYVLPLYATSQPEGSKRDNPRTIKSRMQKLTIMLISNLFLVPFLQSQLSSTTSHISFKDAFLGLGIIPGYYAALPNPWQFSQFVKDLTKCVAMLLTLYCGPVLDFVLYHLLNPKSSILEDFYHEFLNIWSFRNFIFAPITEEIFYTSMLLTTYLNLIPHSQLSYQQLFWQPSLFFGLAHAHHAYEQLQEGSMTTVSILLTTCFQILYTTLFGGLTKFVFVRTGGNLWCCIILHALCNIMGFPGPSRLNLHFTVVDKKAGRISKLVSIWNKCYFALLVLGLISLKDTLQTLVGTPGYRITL
# [7] = biological target: Trypsin (Sus scrofa, UniProt P00761); assay: porcine trypsin inhibitors, dose response, selectivity assay for Rce1 protease inhibitor project, biochemical, quenched peptide fluorescence, cherry-pick (AID 488789)
# [8] = biological target: T2, Estrogen receptor (Homo sapiens, UniProt P03372); assay: ERα–SRC-3 coactivator interaction inhibitors, confirmation, orthogonal assay, biochemical, ELISA, streptavidin-HRP readout (AID 1079)
# T2 sequence (P03372 whole entry): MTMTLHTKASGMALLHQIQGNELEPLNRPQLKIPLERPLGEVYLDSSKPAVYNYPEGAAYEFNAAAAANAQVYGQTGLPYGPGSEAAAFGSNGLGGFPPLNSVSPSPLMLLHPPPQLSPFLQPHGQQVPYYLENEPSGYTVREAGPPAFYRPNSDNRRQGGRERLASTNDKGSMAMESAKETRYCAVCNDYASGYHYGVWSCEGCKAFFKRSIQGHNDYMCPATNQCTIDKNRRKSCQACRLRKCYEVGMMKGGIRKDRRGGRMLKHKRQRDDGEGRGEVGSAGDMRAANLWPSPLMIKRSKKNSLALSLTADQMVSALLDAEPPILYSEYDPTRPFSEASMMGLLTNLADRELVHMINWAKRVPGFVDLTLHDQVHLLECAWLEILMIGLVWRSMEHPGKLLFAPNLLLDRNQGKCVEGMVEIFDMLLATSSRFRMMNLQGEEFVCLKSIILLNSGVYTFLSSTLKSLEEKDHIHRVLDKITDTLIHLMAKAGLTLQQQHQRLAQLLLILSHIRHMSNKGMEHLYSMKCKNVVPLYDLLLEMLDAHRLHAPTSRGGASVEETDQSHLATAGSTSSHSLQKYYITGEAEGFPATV
# [9] = inhibitors of Bluetongue virus cytopathic effect, confirmation, arbovirus, BSR cells (AID 1250); type: functional;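 note: protection from viral cytopathic effect measured as cell viability by ATP luminescence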
# [10] = biological target: T3, Heat shock factor protein 1 (Mus musculus, UniProt P38532); assay: inhibition of MG132-induced HSE-luciferase signal, confirmation, cell-based, NIH3T3, luminescence, dose retest (AID 2382); type: functional;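 note: NIH3T3 fibroblasts with HSF1-driven luciferase reporter stressed by proteasome inhibitor MG132; luminescence from HSF1-driven luciferase expression after 8 hours of MG132 stress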
# T3 sequence (P38532 whole entry): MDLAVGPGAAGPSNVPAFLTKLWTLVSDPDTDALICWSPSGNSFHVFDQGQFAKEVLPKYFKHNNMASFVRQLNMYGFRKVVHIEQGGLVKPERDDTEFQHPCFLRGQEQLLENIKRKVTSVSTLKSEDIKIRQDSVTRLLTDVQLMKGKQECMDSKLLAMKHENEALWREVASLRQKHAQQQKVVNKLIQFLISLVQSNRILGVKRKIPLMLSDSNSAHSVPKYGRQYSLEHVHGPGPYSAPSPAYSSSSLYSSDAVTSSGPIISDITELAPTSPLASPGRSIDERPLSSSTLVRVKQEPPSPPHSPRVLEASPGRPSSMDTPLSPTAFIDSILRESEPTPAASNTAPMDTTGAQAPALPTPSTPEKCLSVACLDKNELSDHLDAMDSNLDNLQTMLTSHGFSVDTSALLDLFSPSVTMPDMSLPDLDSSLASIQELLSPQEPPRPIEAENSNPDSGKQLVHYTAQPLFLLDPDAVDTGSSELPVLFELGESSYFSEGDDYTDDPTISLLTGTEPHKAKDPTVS
# [11] = biological target: Cytochrome P450 3A4 (Homo sapiens, UniProt P08684); conditions: Potency;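 note: confirmatory qHTS run detecting inhibitors and substrates of CYP3A4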
# [12] = biological target: Cytochrome P450 2D6 (Homo sapiens, UniProt P10635); assay: qHTS Assay for Inhibitors and Substrates of Cytochrome P450 2D6. [Related pubchem assays: 410 ]; type: ADME; conditions: read-out: Potency
# Sequence of Cytochrome P450 2D6 (P10635 whole entry): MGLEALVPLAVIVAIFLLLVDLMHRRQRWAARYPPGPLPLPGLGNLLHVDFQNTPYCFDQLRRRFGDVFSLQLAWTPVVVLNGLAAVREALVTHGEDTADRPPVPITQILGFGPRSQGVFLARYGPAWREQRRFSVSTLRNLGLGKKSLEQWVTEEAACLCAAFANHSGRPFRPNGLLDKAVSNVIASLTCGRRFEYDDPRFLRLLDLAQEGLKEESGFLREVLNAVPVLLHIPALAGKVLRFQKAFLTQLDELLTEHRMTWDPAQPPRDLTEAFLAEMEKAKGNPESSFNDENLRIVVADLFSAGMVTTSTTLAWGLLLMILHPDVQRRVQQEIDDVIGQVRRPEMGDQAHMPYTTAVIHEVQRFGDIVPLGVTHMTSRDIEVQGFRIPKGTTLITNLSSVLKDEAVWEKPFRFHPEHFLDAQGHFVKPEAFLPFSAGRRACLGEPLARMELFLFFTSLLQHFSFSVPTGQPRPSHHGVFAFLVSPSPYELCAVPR
# [13] = biological target: Cytochrome P450 2C19 (Homo sapiens, UniProt P33261); assay: Cytochrome panel assay with activity outcomes. Panel member name: p450-cyp2c19 Compounds with AC50 equal or less than 10 uM are considered active; type: functional; conditions: read-out: AC50
# [14] = biological target: T4, Cytochrome P450 1A2 (Homo sapiens, UniProt P05177);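 note: PubChem cytochrome P450 panel assay, CYP1A2 panel member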
# T4 sequence (P05177 whole entry): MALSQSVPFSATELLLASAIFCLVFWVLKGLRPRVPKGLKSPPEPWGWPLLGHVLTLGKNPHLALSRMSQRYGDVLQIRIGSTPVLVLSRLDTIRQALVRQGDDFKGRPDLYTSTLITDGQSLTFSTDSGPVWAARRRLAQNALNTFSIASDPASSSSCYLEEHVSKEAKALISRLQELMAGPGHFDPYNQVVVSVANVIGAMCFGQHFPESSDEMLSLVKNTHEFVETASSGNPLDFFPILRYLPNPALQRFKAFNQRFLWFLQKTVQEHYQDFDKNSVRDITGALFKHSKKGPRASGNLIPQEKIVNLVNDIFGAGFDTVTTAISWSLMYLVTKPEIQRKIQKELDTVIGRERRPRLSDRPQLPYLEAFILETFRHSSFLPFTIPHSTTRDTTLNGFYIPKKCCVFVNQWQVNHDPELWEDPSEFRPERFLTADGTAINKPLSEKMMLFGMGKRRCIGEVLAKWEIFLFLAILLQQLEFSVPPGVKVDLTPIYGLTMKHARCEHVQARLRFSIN
# [15] = enhancers of respiration in Yfh1-depleted yeast, dose response, Friedreich's ataxia, plus single-dose screen (AID 1465); type: functional;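 note: yeast depleted of Yfh1p frataxin homolog grown on glycerol needing respiration; WST-1 tetrazolium dye reduction as measure of cellular dehydrogenase metabolic activity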
# [16] = test system: INS1; assay: beta cell apoptosis inhibitors, cytokine rescue, dose response, luminescence, retest (AID 449756); type: functional, cell-based; conditions: Rattus norvegicus;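 note: cell death triggered by IL-1 beta plus TNF-alpha plus IFN-gamma mixture; protective hits raise ATP signal compared with cytokine alone wells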
# [17] = biological target: Nonstructural protein 1 (Influenza A virus, UniProt Q194T2); type: functional, Influenza A virus (A/California/07/2009(H1N1))
# [18] = biological target: Large T antigen (Simian virus 40, UniProt P03070); type: functional, Betapolyomavirus macacae;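 note: Confirmatory-stage PubChem screen for compounds that inhibit SV40 T antigen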
# [19] = biological target: T5, Mannose-6-phosphate isomerase (Homo sapiens, UniProt P34949); assay: human PMI inhibitors, high substrate, primary screen, biochemical, fluorescence intensity, high mannose 6-phosphate (AID 1220)
# T5 sequence (P34949 whole entry): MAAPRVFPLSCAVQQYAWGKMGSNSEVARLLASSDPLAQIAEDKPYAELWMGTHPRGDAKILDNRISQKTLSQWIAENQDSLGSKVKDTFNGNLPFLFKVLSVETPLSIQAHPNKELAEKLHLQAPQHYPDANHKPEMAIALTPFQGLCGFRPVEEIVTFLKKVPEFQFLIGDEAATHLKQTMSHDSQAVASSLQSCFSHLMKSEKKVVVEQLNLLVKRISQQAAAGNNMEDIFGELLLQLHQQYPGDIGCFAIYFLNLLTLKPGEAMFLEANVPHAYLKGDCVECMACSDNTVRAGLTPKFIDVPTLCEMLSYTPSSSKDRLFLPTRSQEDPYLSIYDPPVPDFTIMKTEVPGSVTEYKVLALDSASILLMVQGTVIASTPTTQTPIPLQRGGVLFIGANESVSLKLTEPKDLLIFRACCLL
# [20] = biological target: T6, Histone-lysine N-methyltransferase NSD2 (Homo sapiens, UniProt O96028); type: biochemical
# T6 sequence (O96028 whole entry): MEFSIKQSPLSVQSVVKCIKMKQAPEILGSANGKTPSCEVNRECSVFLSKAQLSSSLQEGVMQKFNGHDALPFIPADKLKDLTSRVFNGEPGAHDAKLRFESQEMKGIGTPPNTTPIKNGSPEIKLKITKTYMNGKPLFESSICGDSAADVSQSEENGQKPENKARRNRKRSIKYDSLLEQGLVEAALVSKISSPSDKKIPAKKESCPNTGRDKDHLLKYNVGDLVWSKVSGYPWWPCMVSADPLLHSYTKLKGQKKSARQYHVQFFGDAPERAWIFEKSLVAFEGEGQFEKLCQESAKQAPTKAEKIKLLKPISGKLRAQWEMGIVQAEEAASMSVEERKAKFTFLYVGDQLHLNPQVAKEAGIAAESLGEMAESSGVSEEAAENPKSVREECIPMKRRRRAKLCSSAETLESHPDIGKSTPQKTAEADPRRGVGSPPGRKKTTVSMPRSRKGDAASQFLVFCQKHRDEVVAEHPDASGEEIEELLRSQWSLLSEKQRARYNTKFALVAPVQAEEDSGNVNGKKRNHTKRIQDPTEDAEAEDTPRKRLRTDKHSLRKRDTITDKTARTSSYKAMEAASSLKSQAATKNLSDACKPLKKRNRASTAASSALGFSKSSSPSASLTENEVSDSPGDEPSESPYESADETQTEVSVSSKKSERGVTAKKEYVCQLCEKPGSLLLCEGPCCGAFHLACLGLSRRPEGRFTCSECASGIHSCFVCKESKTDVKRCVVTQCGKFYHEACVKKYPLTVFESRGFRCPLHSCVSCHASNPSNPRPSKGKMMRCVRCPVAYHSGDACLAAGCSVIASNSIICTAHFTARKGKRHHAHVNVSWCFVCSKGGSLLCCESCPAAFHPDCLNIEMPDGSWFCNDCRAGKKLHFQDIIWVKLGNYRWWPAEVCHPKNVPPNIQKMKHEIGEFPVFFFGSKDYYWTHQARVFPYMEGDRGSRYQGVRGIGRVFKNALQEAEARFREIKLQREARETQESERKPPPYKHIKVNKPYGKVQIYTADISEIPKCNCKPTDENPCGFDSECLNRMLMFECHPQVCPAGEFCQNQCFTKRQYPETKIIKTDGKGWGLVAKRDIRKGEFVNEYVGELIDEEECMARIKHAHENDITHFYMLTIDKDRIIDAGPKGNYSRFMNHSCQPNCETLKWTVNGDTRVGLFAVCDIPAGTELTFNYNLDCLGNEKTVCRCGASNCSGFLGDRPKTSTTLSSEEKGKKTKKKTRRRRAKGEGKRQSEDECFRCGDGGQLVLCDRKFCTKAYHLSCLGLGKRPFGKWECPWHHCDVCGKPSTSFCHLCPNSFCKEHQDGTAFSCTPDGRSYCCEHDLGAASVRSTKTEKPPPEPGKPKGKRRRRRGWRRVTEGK
# [21] = cells; type: functional, cell-based
# [22] = cells; type: functional, cell-based; remark: listed apart in the source
# Sequence of Peroxisome proliferator-activated receptor gamma/Nuclear receptor coactivator 2 (P37231 whole entry): as the sequence (P37231 whole entry) above
# Sequence of Peroxisome proliferator-activated receptor gamma/Nuclear receptor coactivator 2 (Q15596 whole entry, further chain): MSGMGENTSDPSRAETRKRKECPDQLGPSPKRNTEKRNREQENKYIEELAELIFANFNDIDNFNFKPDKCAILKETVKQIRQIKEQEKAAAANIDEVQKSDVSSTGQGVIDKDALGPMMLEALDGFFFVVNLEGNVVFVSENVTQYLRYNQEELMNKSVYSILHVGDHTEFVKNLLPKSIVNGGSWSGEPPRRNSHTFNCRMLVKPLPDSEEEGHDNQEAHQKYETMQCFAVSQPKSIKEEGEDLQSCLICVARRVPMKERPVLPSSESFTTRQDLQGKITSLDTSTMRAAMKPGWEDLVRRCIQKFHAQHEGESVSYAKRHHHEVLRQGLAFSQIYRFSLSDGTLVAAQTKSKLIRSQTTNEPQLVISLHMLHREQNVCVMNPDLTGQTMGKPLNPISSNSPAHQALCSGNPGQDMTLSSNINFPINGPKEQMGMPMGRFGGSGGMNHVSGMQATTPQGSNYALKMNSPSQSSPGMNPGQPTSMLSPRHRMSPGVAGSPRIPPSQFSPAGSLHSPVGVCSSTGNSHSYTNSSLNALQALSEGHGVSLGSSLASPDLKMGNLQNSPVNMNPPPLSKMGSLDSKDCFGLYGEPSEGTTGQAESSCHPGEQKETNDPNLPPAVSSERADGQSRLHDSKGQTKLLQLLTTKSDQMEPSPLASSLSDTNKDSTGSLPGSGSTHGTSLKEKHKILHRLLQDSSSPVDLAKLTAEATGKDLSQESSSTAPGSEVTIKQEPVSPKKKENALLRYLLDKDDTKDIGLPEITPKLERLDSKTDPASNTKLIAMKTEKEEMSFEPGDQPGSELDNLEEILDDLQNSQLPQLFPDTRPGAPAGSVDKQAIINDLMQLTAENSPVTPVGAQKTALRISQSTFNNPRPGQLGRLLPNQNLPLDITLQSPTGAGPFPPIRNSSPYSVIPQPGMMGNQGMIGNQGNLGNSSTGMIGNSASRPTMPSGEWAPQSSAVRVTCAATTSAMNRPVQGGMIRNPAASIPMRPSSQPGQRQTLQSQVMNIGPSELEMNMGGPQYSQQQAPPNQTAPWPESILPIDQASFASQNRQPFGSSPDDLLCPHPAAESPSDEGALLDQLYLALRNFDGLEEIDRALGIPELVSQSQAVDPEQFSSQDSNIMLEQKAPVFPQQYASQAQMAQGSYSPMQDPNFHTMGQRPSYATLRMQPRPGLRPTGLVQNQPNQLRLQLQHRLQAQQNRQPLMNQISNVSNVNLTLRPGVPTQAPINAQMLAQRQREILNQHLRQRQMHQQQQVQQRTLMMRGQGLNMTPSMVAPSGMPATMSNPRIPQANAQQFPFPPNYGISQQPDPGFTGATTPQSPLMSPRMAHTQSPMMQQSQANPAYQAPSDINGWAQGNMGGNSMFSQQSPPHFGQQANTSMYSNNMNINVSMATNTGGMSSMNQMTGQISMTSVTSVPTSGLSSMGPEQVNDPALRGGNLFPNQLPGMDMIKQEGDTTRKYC
compound,measurement,setting,value
CCCNC(=O)C(CC)NS(=O)(=O)c1ccc(OC)cc1 (configuration not stated),EC50,[1],> 79.4 µM (not active)
same,EC50,[2],> 79.4 µM (not active)
same,EC50,[3],> 79.4 µM (not active)
CCC(c1nnc(SCCNCCO)n1CCN1CCOCC1)N(C)C (configuration not stated),IC50,[4],> 100 µM (inactive)
same,IC50,[5],7.33 µM (active)
Nc1ccc2c(C(F)(F)F)cc(C(F)(F)F)nc2n1,AC50,[6],> 100 µM (inactive)
same,AC50,[7],10.7 µM (active)
O=C(CCCCCn1c(=S)[nH]c2ccccc2c1=O)N1CCC(O)(c2ccc(Cl)cc2)CC1,IC50,[8],0.08 µM (not active)
Cc1ccc2nc(NC(=O)C3=NN(c4ccccc4)C(=O)CC3)sc2c1,IC50,[9],29 µM (active)
c1ccc(-c2ccc(-c3cn4c(n3)CCC4)cc2)cc1,AC50,[6],4.15 µM (active)
same,AC50,[7],2.37 µM (active)
O=C(CCCn1c(=S)[nH]c2ccccc2c1=O)N1CCN(c2cccc3ccccc23)CC1,IC50,[8],0.07 µM (not active)
CC(C)Oc1ccc(OCCSc2nc3ccccc3n2CC(=O)O)cc1,EC50,[10],> 195 µM (not active)
same,IC50,[4],> 100 µM (inactive)
same,IC50,[5],11.5 µM (active)
CCCCCCC1=Cc2cc(OC)c(OC)cc2C(C(C(C)=O)C(=O)OCC)O1 (configuration not stated),AC50,[11],3.16 µM (inconclusive)
same,AC50,[12],6.31 µM (inconclusive)
CCOC(=O)CC(=O)CSc1nc(-c2ccccc2)cc(-c2ccc(Cl)cc2)c1C#N,AC50,[13],7.08 µM (inconclusive)
same,EC50,[1],14.8 µM (not active)
same,EC50,[2],16.4 µM (not active)
same,AC50,[14],2.24 µM (inconclusive)
same,EC50,[3],18.7 µM (not active)
Oc1cccc(/C=N/NC(=S)Nc2cccnc2)c1O,EC50,[15],> 100 µM (active)
same,AC50,[16],0.976 µM (active)
same,IC50,[17],1.83 µM (active)
same,IC50,[18],15 µM (active)
same,IC50,[19],16.1 µM (active)
same,AC50,[20],12.4 µM (active)
same,EC50,[21],13.6 µM (active)
same,EC50,[22],83 µM (active)
O=c1c(O)c(-c2ccc(O)cc2)oc2cc(O)ccc12 [RESOKAEMPFEROL],AC50,[11],39.8 µM (inconclusive)
same,AC50,[12],20 µM (inconclusive)
